Laboratory results as given in US20040082554A1, “Neuroactive steroid derivatives and method of use” (priority 2003, published 2004).
“Also recorded” adds a separate entry of the source.

Key:
NMDA receptor [1] = test: NMDA-induced striatal dopamine release, in vivo microdialysis; parameters: species or system rat
Procedure: In vivo Microdialysis. Prior to surgery the animals were anesthetized with sodium pentobarbital (50 mg/kg, i.p) and placed in a stereotaxic apparatus (David Kopf Instruments). A rostro-caudal incision was then made to expose the dorsal surface of the skull. A hole was drilled in the skull above the striatum with a stereotaxic drill (+0.5 mm A/P and +2.9 mm M/L relative to bregma, (Paxinos and Watson, 1997). Two other holes were drilled in the skull where screws were secured. A dialysis guide cannula (CMA Microdialysis; Acton, Mass.) was lowered 3 mm ventrally and was then secured to the skull with dental cement. All rats were housed in individual cages following surgery.
No less than two days after surgery, the rats were briefly anesthetized with isoflurane to facilitate the removal of the dummy from the guide cannula and insertion of a microdialysis probe (CMA 10, dialysis membrane length of 2 mm of polycarbonate, with a molecular weight cut off of 20 kD) into the striatum. Animals were allowed to recover for 15 min prior to the initiation of the experiment following probe insertion. Artificial cerebrospinal fluid (aCSF) was pumped through the dialysis probe at a rate of 2 μl/min. Twelve 20 min samples were collected over 240 min and immediately stored at −20° C. The first six 20 min samples were collected to establish the baseline concentration of dopamine. […] At this point the perfusate for the DMSO group was changed from aCSF to one of the following solutions: NMDA (1 mM) or NMDA (1 mM) plus D-AP5 (100-200 μM). The perfusate for the steroid group was switched from aCSF to NMDA (1 mM). After collection of sample 7, the perfusate was switched back to aCSF and 5 more 20 min samples were collected. Upon termination of the experiment, samples were stored at −80° C. until analysis.
All samples were analyzed using high pressure liquid chromatography (HPLC) with electrochemical detection (ESA; Chelmsford, Mass.). The mobile phase consisted of 50 mM Na2HPO4, 20 mM citric acid, 1.5 mM heptanosulfonic acid, 0.1 mM EDTA, and 5% methanol at pH 4.0. The dopamine was separated on a 15 cm reverse phase C-18 column (Alltech; Deerfield, Ill.) and oxidized at a potential of 175 mV. Dopamine concentrations per sample were normalized to an external standard curve and plotted as percentage change from baseline.

mice = test: Tail flick test (latency to remove the tail from the light source); type: in vivo; settings: for dose dependence of tail flick latency: mice, 5, 10 or 15 mg/kg i.p., tested every 10 min for 120 min
Procedure: FIG. 9. […] Following the injection the mice were tested for every 10 min for 120 min. The latency to remove the tail from the light source was used as a measure of analgesia. […] The values are mean+SEM for 10-15 mice for each group. Data were analyzed using a one-way ANOVA followed by Fisher's LSD.* Denotes significance compared to control.
FIG. 10. […] Mice were injected with PACME (5, 10 or 15 mg/kg). Following the injection the mice were tested for every 10 min for 120 min. The latency to remove the tail from the light source was used as a measure of analgesia. […] Data were analyzed using a one-way ANOVA followed by Fisher's LSD. The values are mean±SEM for 10-15 mice for each group.* Denotes significance compared to control.
The data were analyzed using a one-way ANOVA followed by Fisher's LSD.

NMDA receptor [2] = test: Behavioral hyperactivity (horizontal activity) induced by intra-striatal microinjection of NMDA; type: in vivo, rat
Procedure: Microinjection Experiments. Rats were anesthetized with sodium pentobarbital (50 mg/kg, i.p.) and placed in a stereotaxic apparatus (David Kopf Instruments). A rostro-caudal incision was then made to expose the dorsal surface of the skull. Two bilateral holes were drilled above the striatum (+1.0 mm A/P, +3.0 mm M/L, −3.0 mm D/V relative to bregma, Paxinos and Watson, 1997) and guide cannulae (9 mm, 24 gauge) were implanted and fastened to the skull using screws and dental cement. All rats were housed in individual cages following surgery. Three days post surgery rats were habituated to the photocell apparatus (AccuScan Instruments; Columbus, Ohio) for two hours. On the day of the experiment rats were rehabituated for one hour prior to the start of the experiment. […] The animals were returned to the behavior boxes and activity was monitored continuously for 60 min.
Horizontal activity was measured in 5 min blocks for 60 min immediately following microinjection. The data were analyzed with a mixed factors analysis of variance (ANOVA) with repeated measures over time in FIG. 4A. […] The data in FIG. 4B represent the 10 min time point from FIG. 4A and was analyzed using a one-way ANOVA.

NMDA receptors = settings: in vitro studies, Park-Chung et al., 1994; cited from earlier work
rats = test: Cocaine sensitization (horizontal activity after daily cocaine injections); type: in vivo, rat
Procedure: Cocaine Sensitization. Rats were habituated to the photocell apparatus (AccuScan Instruments; Columbus, Ohio) for two hours and administered saline (i.p.) one day prior to the start of the experiment. On the first day of the experiment, rats were rehabituated to the behavior boxes for one hour prior to the start of the experiment. […] Horizontal activity was measured for 2 hours after every cocaine injection. Saline-cocaine or 3α5βHS-cocaine were administered daily on 7 consecutive days.

NC(CCCP(=O)(O)O)C(=O)O [D-AP5]
effect on NMDA-induced increase in extracellular striatal dopamine (NMDA receptor [1]; 100 μM or 200 μM co-perfused with 1 mM NMDA): inhibited; also recorded: attenuated in a dose-dependent manner

CC(=O)[C@H]1CC[C@H]2[C@@H]3CC[C@@H]4C[C@H](OCC(=O)O)CC[C@]4(C)[C@H]3CC[C@]12C [PACME, pregnanolone carboxy methyl ether]
tail flick latency at 90 and 120 min (mice; PACME 10 mg/kg): increased the latency
analgesia compared to control (pair-wise analysis) (mice; PACME 7 and 10 mg/kg, at 20, 30, 40, 60 min following injection): significant levels of analgesia
lengthening of tail flick latency relative to cut-off time (mice; PACME, dose not stated, cut-off time 10 seconds): near maximal lengthening of the latency time
dose dependence of tail flick latency (mice): increased the latency to remove the tail from the light source dose-dependently
duration of analgesic effect compared with morphine (2 mg/kg, s.c.) (mice; tail flick, mice): longer lasting
analgesia compared with morphine (mice; tail flick, mice, PACME vs morphine 2 mg/kg s.c.): analgesia similar to that of morphine

CN1CC[C@]23c4c5ccc(O)c4O[C@H]2[C@@H](O)C=C[C@H]3[C@H]1C5 [morphine, reference compound]
time of greatest analgesic effect following injection (mice; morphine 2 mg/kg s.c.): 20 min
analgesia compared to control (pair-wise analysis) (mice; morphine 2 mg/kg s.c., from 20 min to 60 or 90 min following injection): significant levels of analgesia

CC(=O)[C@H]1CC[C@H]2[C@@H]3CC[C@@H]4C[C@H](O)CC[C@]4(C)[C@H]3CC[C@]12C [pregnanolone]
effect on NMDA-induced increase in extracellular striatal dopamine (NMDA receptor [1]; 160 μg/kg i.p. (sub-sedative dose)): had no effect
effect on NMDA-induced increase in extracellular striatal dopamine (NMDA receptor [1]; 160 μg/kg i.p. (sub-sedative dose), listed as Pregnanolone): no influence

pregnanolone hemisuccinate [3α5βHS]
sedation (saline+3α5βHS vs saline+vehicle horizontal activity) (NMDA receptor [2]; 10 mg/kg i.p., any time point): did not induce sedation
effect on NMDA-induced behavioral activation (horizontal activity) (NMDA receptor [2]; 1 and 10 mg/kg i.p. 10 min prior to intra-striatal NMDA, 10 min time point): decrease in horizontal activity; also recorded: blocked
action on NMDA receptors in vitro (NMDA receptors): inhibits NMDA receptors
effect on development of behavioral sensitization to cocaine (rats; 10 mg/kg i.p. 10 min prior to each of 7 daily cocaine injections (15 mg/kg i.p.)): inhibits the initiation of behavioral sensitization to cocaine; also recorded: inhibited the development of behavioral sensitization to cocaine
effect on behavioral hyperactivity induced by saline administration or an acute cocaine injection (rats; highest dose used): had no effect
effect on NMDA-induced increase in extracellular striatal dopamine (NMDA receptor [1]; 5, 10 and 20 mg/kg i.p., 20 and 40 min following NMDA perfusion): inhibits NMDA-induced dopamine release; also recorded: blocked
EC50 for inhibition of NMDA-induced dopamine release (NMDA receptor [1]; i.p. injection, 1 mM NMDA perfusion, at 20 min): 4 mg/kg
tail flick latency at 90 and 120 min (mice; 3α5βHS 15 mg/kg, compared to the other groups): effective in increasing the latency
analgesia compared to control (pair-wise analysis) (mice; 10 and 15 mg/kg i.p., at 20, 30, 40, 60, 90 min): significant levels of analgesia
dose dependence of tail flick latency (mice): dose-dependent increase in tail flick latency; also recorded: increased the latency to remove the tail from the light source dose-dependently
duration of analgesic effect compared with morphine (2 mg/kg, s.c.) (mice; tail flick, mice): longer lasting
